Holding throughout (format): biochemical
In assay [1] the target is T1, NRH:quinone oxidoreductase 2 (NQO2) (Homo sapiens, UniProt P16083).
T1 sequence (P16083 1-231): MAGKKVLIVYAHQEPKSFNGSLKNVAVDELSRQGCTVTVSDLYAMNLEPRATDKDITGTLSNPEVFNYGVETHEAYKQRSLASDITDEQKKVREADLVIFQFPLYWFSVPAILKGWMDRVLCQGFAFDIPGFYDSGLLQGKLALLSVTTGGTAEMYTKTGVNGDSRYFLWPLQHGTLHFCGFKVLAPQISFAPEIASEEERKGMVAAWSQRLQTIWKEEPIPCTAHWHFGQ
The assay can be described thus: rhNQO2 resazurin reduction, 96-well fluorescence assay.

Assay [2] deals with T1, NRH:quinone oxidoreductase 2 (NQO2). As to the kind of experiment: NRH-dependent inactivation of rhNQO2. The note with it: read-out: rhNQO2 inhibition at 1μM ^a.
Assay [3] has the same target. As to the kind of experiment: NRH-dependent inactivation of rhNQO2. Particulars: read-out: rhNQO2 inhibition at 1μM ^a. The source holds these as a separate data set.
Assay [4] has the same target. The assay can be described thus: NRH-dependent inactivation of rhNQO2. Particulars: read-out: rhNQO2 inhibition at 1μM ^a. This is another data set of the same source.

The term inhibition denotes the change of the read-out against control, counted positive when it falls.

Read-outs that look alike come from different tables or passages of the source.

`CCN(CC)CCCC(C)Nc1ccnc2cc(Cl)ccc12` (stereo not shown) [chloroquine]: the “rhNQO2 resazurin reduction, 96-well fluorescence assay” value (from here on “rhNQO2 resazurin reduction”) in assay [1] was “quercetin, imatinib, resveratrol, chloroquine, and melatonin for their ability to inhibit rhNQO2 activity in a cell-free system”.
Take `Cc1c(COc2ccc([N+](=O)[O-])cc2)c2c(n1C)C(=O)C=C(NCCCCN)C2=O` [compound 1, 5-(4-aminobutyl)amino-1,2-dimethyl-3-[(4-nitrophenoxy)methyl]indole-4,7-dione]: the inhibition at 1 µM in assay [2] is 96%.
`Cc1c(COc2c(F)cc(F)cc2F)c2c(n1C)C(=O)C=C(NCCCCN)C2=O` [compound 2, 5-(4-aminobutyl)amino-1,2-dimethyl-3-[(2,4,6-trifluorophenoxy)methyl]indole-4,7-dione]: the inhibition at 1 µM in assay [3] was 96%.
As to `Cc1c(COc2c(F)cc(F)cc2F)c2c(n1C)C(=O)C(NCCCCN)=CC2=O` [compound 3, 6-(4-aminobutyl)amino-1,2-dimethyl-3-[(2,4,6-trifluorophenoxy)methyl]indole-4,7-dione], the inhibition at 1 µM in assay [4] stood at 33%.
On to `Cc1ccc(NC(=O)c2ccc(CN3CCN(C)CC3)cc2)cc1Nc1nccc(-c2cccnc2)n1` [imatinib], for which the “rhNQO2 resazurin reduction” value in assay [1] is “quercetin, imatinib, resveratrol, chloroquine, and melatonin for their ability to inhibit rhNQO2 activity in a cell-free system”.
Consider `O=c1c(O)c(-c2ccc(O)c(O)c2)oc2cc(O)cc(O)c12` [quercetin], for which, in assay [1], the “rhNQO2 resazurin reduction” value was “quercetin, imatinib, resveratrol, chloroquine, and melatonin for their ability to inhibit rhNQO2 activity in a cell-free system”.
In the case of `Oc1ccc(/C=C/c2cc(O)cc(O)c2)cc1` [resveratrol], the “rhNQO2 resazurin reduction” value in assay [1] was “quercetin, imatinib, resveratrol, chloroquine, and melatonin for their ability to inhibit rhNQO2 activity in a cell-free system”.

Source of the values: article PMC3291479 (2011).
